Values quoted from earlier work as cited in patent US20170172145A1, “COMPOSITIONS COMPRISING AN AMIDE” (The Procter & Gamble Company, priority 2015, published 2017).

SMILES | pKa
CCCCCCC(=O)O [heptanoic acid] | 5.1
OCl [hypochlorous acid] | 7.0
CCCCCCCCC(=O)O [nonanoic acid] | 5.2
O=C(O)/C=C/c1ccc(O)cc1 [p-coumaric acid] | 4.6
